Laboratory results: US7022333B2 (priority 2001, dated 2006)

Tested on: S. aureus FRI-1187
Format: cell-based, Staphylococcus aureus

With `OCCc1ccccc1` [Phenylethyl alcohol, phenylethyl alcohol] the “amount of exotoxin production from the FRI-1187 culture” value was “significantly reduced” and the “ELISA: TSST-1 ng/OD unit” value (0.5% test compound, S. aureus FRI-1187, Example 5) was “none”.
